39 compounds from patent US20050070510A1, “Substituted tetracycline compounds as synergistic antifungal agents” (Paratek Pharmaceuticals, Inc., priority 2001, published 2005) can be followed below.

Molecules are shown by their SMILES.

This data set has as its system COS-1 cells. Kind of data set: In vitro mammalian cytotoxicity assay (Resazurin).
Consider `CCC(=O)O[C@H]1[C@@]2(N)C(=C(O)[C@]3(C#N)C(=O)C(C(N)=O)=C(O)[C@@H](N(C)C)[C@]13N)C(=O)c1c(ccc(NC(=O)Nc3cccc4ccccc34)c1O)[C@@H]2N` [BL], for which the “In Vitro Cytotoxicity” value is recorded as “* (toxicities greater than >25 μg/ml are represented by *)”. For `CN(C)[C@@H]1C(O)=C(C(N)=O)C(=O)[C@@]2(C#N)C(O)=C3C(=O)c4c(ccc(NC(=O)OCC5c6ccccc6-c6ccccc65)c4O)[C@H](N)[C@@]3(N)[C@H](O)[C@@]12N` [BK] the value was “** (toxicities less than 25 μg/mL are represented by **)”. In the case of `CC(=O)Oc1cccc(-c2cc(N(C)C)c3c(c2O)C(=O)C2=C(O)[C@]4(C#N)C(=O)C(C(N)=O)=C(O)[C@@H](N(C)C)[C@]4(N)C[C@]2(N)C3)c1` [GP], the “In Vitro Cytotoxicity” value was “* (toxicities greater than >25 μg/ml are represented by *)”. The result for `Cc1ccc(/C=C2\c3cccc(O)c3C(=O)C3=C(O)[C@]4(C#N)C(=O)C(C(N)=O)=C(O)[C@@H](N(C)C)[C@]4(O)[C@@H](O)[C@@]32N)cc1` [CY] reads “** (toxicities less than 25 μg/mL are represented by **)”. The result for `C=CCCNC(=O)NCc1cc(N(C)C)c2c(c1O)C(=O)C1=C(O)[C@]3(C#N)C(=O)C(C(N)=O)=C(O)[C@@H](N(C)C)[C@]3(N)C[C@]1(N)C2` [MD] reads “* (toxicities greater than >25 μg/ml are represented by *)”; that for `CN(C)[C@@H]1C(O)=C(C(N)=O)C(=O)[C@@]2(C#N)C(O)=C3C(=O)c4c(O)ccc(-c5ccoc5)c4C[C@@]3(N)C[C@@]12N` [EP], “** (toxicities less than 25 μg/mL are represented by **)”; that for `CN(C)[C@@H]1C(O)=C(C(N)=O)C(=O)[C@@]2(C#N)C(O)=C3C(=O)c4c(O)ccc(-c5ccc(CNC6CCCCC6)o5)c4C[C@@]3(N)C[C@@]12N` [SR], “** (toxicities less than 25 μg/mL are represented by **)”. For `COc1ccc(CNCCc2ccccc2)cc1-c1ccc(O)c2c1C[C@@]1(N)C[C@@]3(N)[C@H](N(C)C)C(O)=C(C(N)=O)C(=O)[C@@]3(C#N)C(O)=C1C2=O` [NH] the value was “** (toxicities less than 25 μg/mL are represented by **)”; for `CN(C)CC(=O)O[C@H]1[C@@]2(N)C(=C(O)[C@]3(C#N)C(=O)C(C(N)=O)=C(O)[C@@H](N(C)C)[C@]13N)C(=O)c1c(O)cccc1[C@@H]2N` [BZ], “** (toxicities less than 25 μg/mL are represented by **)”. As for `CN(C)[C@@H]1C(O)=C(C(N)=O)C(=O)[C@@]2(C#N)C(O)=C3C(=O)c4c(O)c(CN)cc(-c5ccccc5)c4C[C@@]3(N)C[C@@]12N` [RO], the “In Vitro Cytotoxicity” value is listed as “* (toxicities greater than >25 μg/ml are represented by *)”. For `CN(C)c1cc(NCc2cc(F)cc(F)c2)c(O)c2c1C[C@@]1(N)C[C@@]3(N)[C@H](N(C)C)C(O)=C(C(N)=O)C(=O)[C@@]3(C#N)C(O)=C1C2=O` [TS] the value was “** (toxicities less than 25 μg/mL are represented by **)”; for `CN(C)[C@@H]1C(O)=C(C(N)=O)C(=O)[C@@]2(C#N)C(O)=C3C(=O)c4c(ccc(-c5cc6ccccc6o5)c4O)[C@H](N)[C@@]3(N)[C@H](O)[C@@]12N` [QC], “** (toxicities less than 25 μg/mL are represented by **)”. The result for `CCCCN(c1ccc2c(c1O)C(=O)C1=C(O)[C@]3(C#N)C(=O)C(C(N)=O)=C(O)[C@@H](N(C)C)[C@]3(N)C[C@]1(N)C2)C1CCN(C)CC1` [RY] reads “* (toxicities greater than >25 μg/ml are represented by *)”; that for `Cc1ccc(C#Cc2cc(N(C)C)c3c(c2O)C(=O)C2=C(O)[C@]4(C#N)C(=O)C(C(N)=O)=C(O)[C@@H](N(C)C)[C@]4(N)C[C@]2(N)C3)cc1` [FL], “** (toxicities less than 25 μg/mL are represented by **)”. For `CN(C)[C@@H]1C(O)=C(C(N)=O)C(=O)[C@@]2(C#N)C(O)=C3C(=O)c4c(O)ccc(C#Cc5ccccc5F)c4C[C@@]3(N)C[C@@]12N` [GS] the value was “** (toxicities less than 25 μg/mL are represented by **)”; for `CN(C)[C@@H]1C(O)=C(C(N)=O)C(=O)[C@@]2(C#N)C(O)=C3C(=O)c4c(O)ccc(-c5ccc(C(F)(F)F)cc5)c4C[C@@]3(N)C[C@@]12N` [FQ], “** (toxicities less than 25 μg/mL are represented by **)”.

For `CN(C)[C@@H]1C(O)=C(C(N)=O)C(=O)[C@@]2(C#N)C(O)=C3C(=O)c4c(O)ccc(-c5cc6ccccc6o5)c4C[C@@]3(N)C[C@@]12N` [NW], the “In Vitro Cytotoxicity” value is recorded as “** (toxicities less than 25 μg/mL are represented by **)”.

Take `CN(C)c1ccc(-c2ccc3c(c2O)C(=O)C2=C(O)[C@]4(C#N)C(=O)C(C(N)=O)=C(O)[C@@H](N(C)C)[C@]4(N)[C@@H](O)[C@]2(N)[C@H]3O)cc1` [OY]: the “In Vitro Cytotoxicity” value is “** (toxicities less than 25 μg/mL are represented by **)”. The result for `CN(C)[C@@H]1C(O)=C(C(N)=O)C(=O)[C@@]2(C#N)C(O)=C3C(=O)c4c(O)c(CN5C(=O)c6ccccc6C5=O)cc(-c5cccc([N+](=O)O)c5)c4C[C@@]3(N)C[C@@]12N` [JQ] reads “** (toxicities less than 25 μg/mL are represented by **)”. For `CN(C)c1cc(-c2ccc(CN3CCN(CCO)CC3)o2)c(O)c2c1C[C@H]1C[C@H]3[C@H](N(C)C)C(O)=C(C(N)=O)C(=O)[C@@]3(O)C(O)=C1C2=O` [Compound UC, 2-[4-(5-Minocyclin-9-yl-furan-2-ylmethyl)-piperazin-1-yl]-ethanol] the value was “* (toxicities greater than >25 μg/ml are represented by *)”; for `CN(C)c1cc(CNCCc2ccccc2)c(O)c2c1C[C@@]1(N)C[C@@]3(N)[C@H](N(C)C)C(O)=C(C(N)=O)C(=O)[C@@]3(C#N)C(O)=C1C2=O` [LX], “* (toxicities greater than >25 μg/ml are represented by *)”. In the case of `CCc1cncc(-c2ccc(O)c3c2C[C@@]2(N)C[C@@]4(N)[C@H](N(C)C)C(O)=C(C(N)=O)C(=O)[C@@]4(C#N)C(O)=C2C3=O)c1` [UY], the “In Vitro Cytotoxicity” value is recorded as “** (toxicities less than 25 μg/mL are represented by **)”. For `CN(C)[C@@H]1C(O)=C(C(N)=O)C(=O)[C@@]2(C#N)C(O)=C3C(=O)c4c(O)cccc4/C(=C\c4ccc(F)cc4)[C@@]3(N)[C@H](O)[C@@]12N` [DS] the value was “** (toxicities less than 25 μg/mL are represented by **)”; for `CN(C)CC(=O)Nc1ccc(C#Cc2ccc(O)c3c2C[C@@]2(N)C[C@@]4(N)[C@H](N(C)C)C(O)=C(C(N)=O)C(=O)[C@@]4(C#N)C(O)=C2C3=O)cc1` [GY], “* (toxicities greater than >25 μg/ml are represented by *)”. For `CN(C)Cc1cccc(-c2ccc(O)c3c2C[C@@]2(N)C[C@@]4(N)[C@H](N(C)C)C(O)=C(C(N)=O)C(=O)[C@@]4(C#N)C(O)=C2C3=O)c1` [HQ] the value was “* (toxicities greater than >25 μg/ml are represented by *)”. `CN(C)[C@@H]1C(O)=C(C(N)=O)C(=O)[C@@]2(C#N)C(O)=C3C(=O)c4c(O)ccc(-c5ccc(NC(=O)OC(C)(C)C)cc5)c4C[C@@]3(N)C[C@@]12N` [PF]: the “In Vitro Cytotoxicity” value was “** (toxicities less than 25 μg/mL are represented by **)”. Turning to `CCCCCN(CCCCC)Cc1cc(N(C)C)c2c(c1O)C(=O)C1=C(O)[C@]3(C#N)C(=O)C(C(N)=O)=C(O)[C@@H](N(C)C)[C@]3(N)C[C@]1(N)C2` [MP], the “In Vitro Cytotoxicity” value is “** (toxicities less than 25 μg/mL are represented by **)”. For `C#Cc1cc(N(C)C)c2c(c1O)C(=O)C1=C(O)[C@]3(C#N)C(=O)C(C(N)=O)=C(O)[C@@H](N(C)C)[C@]3(N)C[C@]1(N)C2` [DI] the value was “** (toxicities less than 25 μg/mL are represented by **)”; for `CN(C)c1cc(NC(=O)OC(C)(C)C)c(O)c2c1C[C@@]1(N)C[C@@]3(N)[C@H](N(C)C)C(O)=C(C(N)=O)C(=O)[C@@]3(C#N)C(O)=C1C2=O` [DN], “** (toxicities less than 25 μg/mL are represented by **)”. The result for `CC(=O)c1ccc(-c2ccc3c(c2O)C(=O)C2=C(O)[C@]4(C#N)C(=O)C(C(N)=O)=C(O)[C@@H](N(C)C)[C@]4(N)[C@@H](O)[C@]2(N)[C@H]3N)cc1` [QP] reads “** (toxicities less than 25 μg/mL are represented by **)”. For `Cc1cc(C)cc(-c2ccc(O)c3c2C[C@@]2(N)C[C@@]4(N)[C@H](N(C)C)C(O)=C(C(N)=O)C(=O)[C@@]4(C#N)C(O)=C2C3=O)c1` [GD] the value was “** (toxicities less than 25 μg/mL are represented by **)”; for `CN(C)[C@@H]1C(O)=C(C(N)=O)C(=O)[C@@]2(C#N)C(O)=C3C(=O)c4c(ccc(CNCC(C)(C)C)c4O)[C@H](N)[C@@]3(N)[C@H](O)[C@@]12N` [RP], “* (toxicities greater than >25 μg/ml are represented by *)”. On to `CN(C)[C@@H]1C(O)=C(C(N)=O)C(=O)[C@@]2(C#N)C(O)=C3C(=O)c4c(O)ccc(C#Cc5cccc(C#N)c5)c4C[C@@]3(N)C[C@@]12N` [GQ], for which the “In Vitro Cytotoxicity” value is on record as “* (toxicities greater than >25 μg/ml are represented by *)”. For `CN(C)[C@@H]1C(O)=C(C(N)=O)C(=O)[C@@]2(C#N)C(O)=C3C(=O)c4c(ccc(Br)c4O)[C@H](N)[C@@]3(N)[C@H](O)[C@@]12N` [CO] the value was “* (toxicities greater than >25 μg/ml are represented by *)”; for `CN(C)c1cc(-c2ccc(C(N)=O)cc2)c(O)c2c1C[C@@]1(N)C[C@@]3(N)[C@H](N(C)C)C(O)=C(C(N)=O)C(=O)[C@@]3(C#N)C(O)=C1C2=O` [ET], “** (toxicities less than 25 μg/mL are represented by **)”. For `CC(C)CNC(=N)Nc1cc(N(C)C)c2c(c1O)C(=O)C1=C(O)[C@]3(C#N)C(=O)C(C(N)=O)=C(O)[C@@H](N(C)C)[C@]3(N)C[C@]1(N)C2` [MM] the value was “* (toxicities greater than >25 μg/ml are represented by *)”; for `CN(C)c1cc(CNC(=O)NCC(C)(C)C)c(O)c2c1C[C@@]1(N)C[C@@]3(N)[C@H](N(C)C)C(O)=C(C(N)=O)C(=O)[C@@]3(C#N)C(O)=C1C2=O` [MC], “* (toxicities greater than >25 μg/ml are represented by *)”; for `COC(=O)C(CO)NC(=O)c1cccc(-c2ccc(O)c3c2C[C@@]2(N)C[C@@]4(N)C(N(C)C)C(O)=C(C(N)=O)C(=O)[C@@]4(C#N)C(O)=C2C3=O)c1` (stereo partly drawn) [QT], “** (toxicities less than 25 μg/mL are represented by **)”. For `CN(C)Cc1ccc(-c2cc(N(C)C)c3c(c2O)C(=O)C2=C(O)[C@]4(C#N)C(=O)C(C(N)=O)=C(O)[C@@H](N(C)C)[C@]4(N)C[C@]2(N)C3)cc1` [IJ] the value was “* (toxicities greater than >25 μg/ml are represented by *)”.
